Measurements from article PMC7904790 (Nature Communications, 2021).
Where two headings read alike, the source gives them in different places.

Columns and labels:
KARPAS299 = assay: cells; set-up: CellTiter-Glo viability of fusion-positive human cancer cell lines; conditions: Homo sapiens, KARPAS-299, 72 h
KM12 = assay: cells; set-up: CellTiter-Glo viability of fusion-positive human cancer cell lines; conditions: Homo sapiens, KM12, 72 h
in vitro = assay: in vitro; set-up: CellTiter-Glo viability of parental Ba/F3 cells with IL-3 (counter-screen); conditions: mouse, parental ba/f3 cells +il-3; with IL-3; read-out: IC50 parental Ba/F3 (+IL-3)
Experimental: To identify drugs that can overcome these mutations, we screened our focused 90-inhibitor library using Ba/F3 cells expressing EML4-ALK I1171N + F1174I and I1171N + L1198H. At a concentration of 50 nM, gilteritinib suppressed the viability of both wild-type (WT) and compound mutant Ba/F3 cells (Fig. 1a). Since gilteritinib has reported as multi-kinase inhibitor, we first evaluated whether the ALK inhibitory efficacy of gilteritinib is driven by on-target activity or not. As a result of western blot analysis, gilteritinib suppressed the autophosphorylation of ALK in EML4-ALK-expressing Ba/F3 cells (Fig. 1b and Supplementary Fig. 1). […] As well as Ba/F3 cell model, we verified the activity of gilteritinib to H3122 cell line that is EML4-ALK-positive NSCLC cells. […] Then, the inhibitory concentration of gilteritinib is matched between ALK phosphorylation and its downstream signals. […] Further, using the phosphoproteomics data, kinase substrate-enrichment analysis (KSEA) predicted activate kinase candidates as potential gilteritinib targets and identified ALK as the most likely regulated protein (Fig. 1e, Supplementary Figs. 3 and 4, and Supplementary Table 2).  Fig. 1 Identification of gilteritinib as an inhibitor of ALK-rearranged cancer cells. a Relative cell viability of parental (with IL-3), EML4-ALK wild-type (WT), EML4-ALK I1171N + F1174I, and EML4-ALK I1171N + L1198H Ba/F3 cells treated with 50 nM of the indicated inhibitors. Cell viability was analyzed using the CellTiter-Glo assay and calculated relative to the viability of dimethyl sulfoxide-treated Ba/F3 cells. b The suppression of phospho-ALK in I1171N + F1174I, I1171N + L1198H mutation-expressing Ba/F3 cells was evaluated using western blotting. Cells were treated with the indicated concentrations of gilteritinib for 3 h (n = 2). c The suppression of phospho-ALK and its downstream signals in H3122 parental cells and I1171N + F1174I compound mutation-expressing cells were evaluated using western blotting. […] N = 3 independent samples examined over three independent experiments and representative experiment data are presented as mean values ± SD. e Volcano plot displaying the −log10 (p-value) versus log2 (gilteritinib treatment/DMSO treatment) for all quantified phosphopeptides. The red diamond indicates phospho-ALK.

H3122 = assay: cells; set-up: CellTiter-Glo viability of fusion-positive human cancer cell lines; conditions: Homo sapiens, NCI-H3122, 72 h; read-out: Entrectinib IC50
JFCR-028-3 = assay: cells; set-up: CellTiter-Glo viability of fusion-positive human cancer cell lines; conditions: 72 h; read-out: Entrectinib IC50
MCC-003 = assay: cells; set-up: CellTiter-Glo viability of fusion-positive human cancer cell lines; conditions: 72 h; read-out: Entrectinib IC50
NTRK1 [1] = biological target: T1, NTRK1 (Homo sapiens, UniProt P04629); assay: phospho-NTRK1 western blot in KM12 / Ba/F3 cells; type: cell-based
T1 construct: TPM3-NTRK1 fusion in cells
T1 sequence (P04629 416-796 limits assumed): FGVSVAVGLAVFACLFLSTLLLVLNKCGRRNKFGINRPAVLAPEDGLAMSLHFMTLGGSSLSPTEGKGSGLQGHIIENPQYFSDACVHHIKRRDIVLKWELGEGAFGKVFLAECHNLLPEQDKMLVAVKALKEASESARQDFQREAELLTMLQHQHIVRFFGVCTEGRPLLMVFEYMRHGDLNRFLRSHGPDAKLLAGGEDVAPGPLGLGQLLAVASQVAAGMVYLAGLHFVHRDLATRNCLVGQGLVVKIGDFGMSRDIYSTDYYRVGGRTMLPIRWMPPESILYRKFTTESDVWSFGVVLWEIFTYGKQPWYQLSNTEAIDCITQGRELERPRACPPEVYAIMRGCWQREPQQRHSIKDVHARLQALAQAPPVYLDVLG

EML4-ALK = biological target: T2, EML4-ALK (Homo sapiens, UniProt Q9UM73, I1171N/F1174I); assay: phospho-ALK western blot in cells; type: cell-based
T2 construct: EML4-ALK fusion expressed in Ba/F3 and H3122 cells
T2 sequence (Q9UM73 1058-1620 I1171N/F1174I limits assumed): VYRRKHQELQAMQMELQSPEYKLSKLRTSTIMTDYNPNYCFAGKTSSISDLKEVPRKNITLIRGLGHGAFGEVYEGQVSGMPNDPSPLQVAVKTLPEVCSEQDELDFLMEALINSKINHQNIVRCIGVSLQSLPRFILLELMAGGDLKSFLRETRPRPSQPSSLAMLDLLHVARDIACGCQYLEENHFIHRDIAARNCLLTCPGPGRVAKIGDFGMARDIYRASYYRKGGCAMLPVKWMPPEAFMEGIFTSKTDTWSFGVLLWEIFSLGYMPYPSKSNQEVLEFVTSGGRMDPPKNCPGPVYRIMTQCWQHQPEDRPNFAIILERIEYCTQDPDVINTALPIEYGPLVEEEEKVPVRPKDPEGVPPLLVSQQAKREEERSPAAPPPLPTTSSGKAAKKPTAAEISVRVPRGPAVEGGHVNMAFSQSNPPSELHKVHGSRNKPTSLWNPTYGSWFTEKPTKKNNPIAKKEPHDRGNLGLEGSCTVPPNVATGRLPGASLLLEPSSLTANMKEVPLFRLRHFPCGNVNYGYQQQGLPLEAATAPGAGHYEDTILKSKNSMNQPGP

NTRK1 [2] = biological target: T3, NTRK1 (Homo sapiens, UniProt P04629, G667C); assay: NTRK1 autophosphorylation western blot in Ba/F3 cells; type: cell-based
T3 construct: TPM3-NTRK1 fusion expressed in Ba/F3 cells
T3 sequence (P04629 405-796 G667C limits assumed): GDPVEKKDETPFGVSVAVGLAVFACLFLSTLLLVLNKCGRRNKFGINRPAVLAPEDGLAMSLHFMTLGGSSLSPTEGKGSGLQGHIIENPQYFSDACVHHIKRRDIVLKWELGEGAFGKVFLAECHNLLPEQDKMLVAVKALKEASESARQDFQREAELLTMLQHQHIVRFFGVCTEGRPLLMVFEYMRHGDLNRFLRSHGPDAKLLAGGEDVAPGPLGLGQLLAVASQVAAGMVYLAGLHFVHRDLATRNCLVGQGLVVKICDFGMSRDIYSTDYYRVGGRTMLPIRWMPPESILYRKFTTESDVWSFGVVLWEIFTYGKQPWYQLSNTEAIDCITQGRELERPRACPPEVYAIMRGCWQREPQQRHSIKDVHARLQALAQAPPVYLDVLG

| Compound | IC50 (KARPAS299; read-out: Lorlatinib IC50) | IC50 (KM12; read-out: Lorlatinib IC50) | CC50 at 72 h (in vitro) | IC50 (H3122) | IC50 (JFCR-028-3) | IC50 (KARPAS299; read-out: Entrectinib IC50) | IC50 (KM12; read-out: Entrectinib IC50) | IC50 (MCC-003) | phospho-NTRK1 western blot in KM12 / Ba/F3 cells (NTRK1 [1]) | phospho-ALK western blot in cells (EML4-ALK) | NTRK1 autophosphorylation western blot in Ba/F3 cells (NTRK1 [2]) |
| --- | --- | --- | --- | --- | --- | --- | --- | --- | --- | --- | --- |
| C[C@H]1Oc2cc(cnc2N)-c2c(nn(C)c2C#N)CN(C)C(=O)c2ccc(F)cc21 [lorlatinib] | 2.3 ± 1 nM | 138 ± 6 nM | 8240 ± 2410 nM | – | – | – | – | – | – | – | – |
| CN1CCN(c2ccc(C(=O)Nc3n[nH]c4ccc(Cc5cc(F)cc(F)c5)cc34)c(NC3CCOCC3)c2)CC1 [Entrectinib] | – | – | 481 ± 89 nM | 44 ± 12 nM | 44 ± 17 nM | 42 ± 8.5 nM | 2.6 ± 0.28 nM | 496 ± 147 nM | – | – | – |
| CCc1nc(C(N)=O)c(Nc2ccc(N3CCC(N4CCN(C)CC4)CC3)c(OC)c2)nc1NC1CCOCC1 [gilteritinib] | – | – | 177 ± 4.9 nM | – | – | – | – | – | ~ 30 nM | < 30 nM | gilteritinib, but not entrectinib, inhibited the autophosphorylation of NTRK1 in TPM3-NTRK1 G667C-mutant Ba/F3 cells at a low concentration |
